The results in this text go back to patent US12171756B2, “NLRP3 modulators” (Innate Tumor Immunity, Inc., priority 2017, dated 2024).

SMILES strings stand for the structures. pEC50, pIC50: −log10 of the molar value. A value given as a limit tells only on which side of the number the result lay.

The target in one assay is T1, human TLR7 (Homo sapiens, UniProt Q9NYK1).
T1 construct: host or cells: human HEK-Blue cells (HEK293-derived) co-expressing TLR7 and an NF-kB/AP1-inducible SEAP reporter
T1 sequence (Q9NYK1 27-1049): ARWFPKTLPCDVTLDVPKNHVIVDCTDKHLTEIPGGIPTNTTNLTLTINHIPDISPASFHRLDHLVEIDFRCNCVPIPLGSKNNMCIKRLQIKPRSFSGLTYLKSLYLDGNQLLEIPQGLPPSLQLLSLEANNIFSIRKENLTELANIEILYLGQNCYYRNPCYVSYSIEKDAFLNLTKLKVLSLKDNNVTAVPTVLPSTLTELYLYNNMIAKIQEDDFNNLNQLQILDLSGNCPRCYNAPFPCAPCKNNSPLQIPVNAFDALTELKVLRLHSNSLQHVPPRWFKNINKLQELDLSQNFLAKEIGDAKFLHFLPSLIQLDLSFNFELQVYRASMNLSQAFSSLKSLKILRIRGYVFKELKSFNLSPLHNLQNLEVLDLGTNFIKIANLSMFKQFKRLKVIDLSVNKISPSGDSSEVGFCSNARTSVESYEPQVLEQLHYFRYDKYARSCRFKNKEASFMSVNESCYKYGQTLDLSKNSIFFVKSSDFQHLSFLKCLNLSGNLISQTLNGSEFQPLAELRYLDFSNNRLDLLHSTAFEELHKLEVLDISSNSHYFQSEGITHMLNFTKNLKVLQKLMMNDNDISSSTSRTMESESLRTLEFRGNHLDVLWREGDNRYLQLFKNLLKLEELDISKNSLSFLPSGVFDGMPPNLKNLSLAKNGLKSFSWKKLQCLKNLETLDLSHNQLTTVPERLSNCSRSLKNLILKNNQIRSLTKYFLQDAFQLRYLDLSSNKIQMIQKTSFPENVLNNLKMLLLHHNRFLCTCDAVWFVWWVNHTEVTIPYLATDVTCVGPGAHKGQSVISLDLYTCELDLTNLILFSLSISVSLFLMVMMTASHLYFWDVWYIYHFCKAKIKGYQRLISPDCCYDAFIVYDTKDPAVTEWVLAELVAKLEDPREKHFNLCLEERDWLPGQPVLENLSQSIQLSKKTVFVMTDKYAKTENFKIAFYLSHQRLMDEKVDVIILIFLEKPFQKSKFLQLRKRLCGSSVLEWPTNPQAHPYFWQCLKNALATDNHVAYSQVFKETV
Put plainly: In vitro human TLR7 binding reporter assay (HEK-Blue, NF-kB/AP1-inducible SEAP). The assay is classed as cell-based. Conditions: HEK-Blue human TLR7 SEAP reporter cells; activity range classes; read-out: TLR7 Agonist EC50. As for the experimental part: (§1) In Vitro Human TLR7 and TLR8 Binding Reporter Assays
(§2) Logarithmically-growing human HEK-Blue cells co-expressing a TLR7 or TLR8 gene and a NF-kB/AP1-inducible SEAP (secreted embryonic alkaline phosphatase; Invivogen, San Diego, CA) reporter gene are added to individual wells of a 384-well plate (15,000 cells per 20 μL per well) and maintained for 24 h at 37° C., 5% CO2. Test compounds or DMSO are distributed to separate wells the next day using acoustic liquid handling technology (100 nL per well) and cells are subsequently incubated for 18 h at 37° C., 5% CO2. Cellular SEAP production is measured using an Envision plate reader instrument thirty minutes after adding freshly-made Quanti-Blue reagent (prepared by following manufacturer instructions; Invivogen, San Diego, CA) to the HEK-Blue TLR Nf-kB-SEAP cell reactions. All EC50 values (half-maximal effective concentration) are determined using proprietary data analysis software. Normalized EC50 value=absolute value determined by setting 100% Ymax using a reference standard RLU (relative light unit) values from cells treated with 50 μM of the reference standard.
A general note: In a reporter assay the amount or activity of a reporter protein is the signal.

Assay [1] deals with IL-1β production in PMA-differentiated THP-1 cells. Put plainly: Measurement of IL-1β production in PMA-differentiated THP-1 cells (ELISA, 4 hours). The assay is classed as cell-based, human. To be noted: Homo sapiens, THP-1, human IL-1β production, assayed using one or more of the described procedures, read-out: NLRP3 hIL1B IC50. The protocol:
Measurement of IL-1β Production in PMA-Differentiated THP-1 Cells THP-1 cells were purchased from the American Type Culture Collection and sub-cultured according to instructions from the supplier. Prior to experiments, cells were cultured in RPMI 1640 containing 10% heat inactivated FBS, penicillin (100 units/ml) and streptomycin (100 μg/ml), and maintained in log phase prior to experimental setup. Prior to the experiment THP-1 were treated with PMA (Phorbol 12-myristate 13-acetate) (10 μg/ml) for 24 hours. The day of the experiment the media was removed and attaching cells were treated with trypsin for 2 minutes, cells were then collected, washed with PBS (phosphate buffer saline), spin down, resuspended in 2% heat inactivated FBS with RPMI at a concentration of 1×10^6 cells/ml, and 100 μl was plated in a 96 well plate. Compounds were dissolved in dimethyl sulfoxide (DMSO) and added to the culture medium to achieve desired concentration (e.g. 100, 30, 10, 3, 1, 0.3 or 0.1 μM). Cells were incubated with compounds for 4 hours. Cell free supernatant was collected and the production of IL-1β was evaluated by ELISA. A vehicle only control was run concurrently with each experiment. Final DMSO concentration was 1%.
A general note: An ELISA detects its analyte on a solid surface through an enzyme-linked reagent.

Another assay deals with T2, human TLR8 (Homo sapiens, UniProt Q9NR97).
T2 construct: host or cells: human HEK-Blue cells (HEK293-derived) co-expressing TLR8 and an NF-kB/AP1-inducible SEAP reporter
T2 sequence (Q9NR97 27-1041): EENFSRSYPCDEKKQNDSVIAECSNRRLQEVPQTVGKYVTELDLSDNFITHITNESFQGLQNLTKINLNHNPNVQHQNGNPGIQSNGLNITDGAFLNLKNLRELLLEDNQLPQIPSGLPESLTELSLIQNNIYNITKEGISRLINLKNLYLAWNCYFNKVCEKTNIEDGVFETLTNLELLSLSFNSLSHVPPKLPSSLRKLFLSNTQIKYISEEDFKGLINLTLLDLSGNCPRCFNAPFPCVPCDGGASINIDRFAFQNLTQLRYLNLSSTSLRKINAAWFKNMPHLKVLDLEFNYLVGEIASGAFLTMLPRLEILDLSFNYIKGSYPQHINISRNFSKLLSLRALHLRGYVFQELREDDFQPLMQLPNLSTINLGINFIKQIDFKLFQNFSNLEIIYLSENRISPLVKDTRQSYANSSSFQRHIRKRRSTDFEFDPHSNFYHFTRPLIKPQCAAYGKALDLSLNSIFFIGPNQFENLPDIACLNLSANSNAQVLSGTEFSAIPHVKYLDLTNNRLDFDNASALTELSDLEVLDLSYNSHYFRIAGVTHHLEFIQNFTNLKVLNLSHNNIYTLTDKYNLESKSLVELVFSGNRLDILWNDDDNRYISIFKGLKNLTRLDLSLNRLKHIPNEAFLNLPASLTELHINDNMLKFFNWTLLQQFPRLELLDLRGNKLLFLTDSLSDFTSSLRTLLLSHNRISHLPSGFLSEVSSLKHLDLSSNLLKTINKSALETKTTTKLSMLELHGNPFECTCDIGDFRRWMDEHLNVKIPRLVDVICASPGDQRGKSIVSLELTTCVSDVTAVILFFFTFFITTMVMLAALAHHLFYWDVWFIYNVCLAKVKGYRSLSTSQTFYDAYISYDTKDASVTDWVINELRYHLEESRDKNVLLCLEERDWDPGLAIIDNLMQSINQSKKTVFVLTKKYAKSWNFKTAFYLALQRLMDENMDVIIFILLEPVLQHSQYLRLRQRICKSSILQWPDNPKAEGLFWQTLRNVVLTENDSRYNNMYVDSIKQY
Briefly: In vitro human TLR8 binding reporter assay (HEK-Blue, NF-kB/AP1-inducible SEAP). The assay is classed as cell-based. Conditions: HEK-Blue human TLR8 SEAP reporter cells; activity range classes; read-out: TLR8 Agonist EC50. The protocol: as §1, §2

For `Nc1nc2cc(-c3cc[nH]n3)ccc2cc1CCCCCOCc1ccccc1` [Compound 106, 3-[5-(benzyloxy)pentyl]-7-(1H-pyrazol-3-yl)quinolin-2-amine], the pEC50 on human TLR7 and on human TLR8 was less than 4.00 each time. Further, in assay [1], the negative-log IC50 (pIC50) is 5.42.
As to `CC(=O)NCCCCc1cc2ccc(-c3cc[nH]n3)cc2nc1N` [Compound 109], the negative-log EC50 (pEC50) on human TLR7 and at human TLR8 was less than 4.00 each time. Moreover, in assay [1], the pIC50 is 5.36.
Take `CCNCCCc1cc2ccc(-c3cc[nH]n3)cc2nc1N` [Compound 110, 3-[3-(ethylamino)propyl]-7-(1H-pyrazol-3-yl)quinolin-2-amine]: the negative-log EC50 (pEC50) on human TLR7 and at human TLR8 was less than 4.00 throughout. The pIC50 in assay [1] was 5.79.
As for `CCN(CCCCc1cc2ccc(-c3cc[nH]n3)cc2nc1N)C(C)=O` [Compound 111], the pEC50 on human TLR7 and on human TLR8 was less than 4.00 each time. The pIC50 in assay [1] is 5.61.
With `CCN(CCCc1cc2ccc(-c3cc[nH]n3)cc2nc1N)C(C)=O` [Compound 112, N-[3-[2-amino-7-(1H-pyrazol-3-yl)quinolin-3-yl]propyl]-N-ethylacetamide], the pEC50 at human TLR7 and on human TLR8 was less than 4.00 throughout. Further, in assay [1], the pIC50 is 5.59.
With `COCc1cc2ccc(-c3ccn[nH]3)cc2nc1N` [Compound 113, 3-(methoxymethyl)-7-(1H-pyrazol-5-yl)quinolin-2-amine], the pEC50 on human TLR7 and at human TLR8 was less than 4.00 each time. Moreover, in assay [1], the negative-log IC50 (pIC50) is 4.92.
For `Nc1nc2cc(-c3ccn[nH]3)ccc2cc1CCCN1CCCCC1` [Compound 114], the negative-log EC50 (pEC50) on human TLR7 and on human TLR8 was less than 4.00 throughout. Besides, in assay [1], the pIC50 was 5.37.
`Nc1nc2cc(-c3ccn[nH]3)ccc2cc1CN1CCOCC1` [Compound 115]: the pEC50 at human TLR7 and at human TLR8 was less than 4.00 each time. Besides, the pIC50 in assay [1] was 5.52.
For `Nc1nc2cc(-c3ccn[nH]3)ccc2cc1C1CCOCC1` [Compound 116], the negative-log EC50 (pEC50) on human TLR7 and on human TLR8 was less than 4.00 each time. Moreover, the pIC50 in assay [1] was 5.39.
Regarding `CN(C)C1CCN(Cc2cc3ccc(-c4ccn[nH]4)cc3nc2N)CC1` [Compound 118], the pEC50 at human TLR7 and on human TLR8 was less than 4.00 in each case. In addition, the pIC50 in assay [1] is 5.76.
In the case of `Nc1nc2cc(-c3ccn[nH]3)ccc2cc1CN1CCCC1=O` [Compound 119], the pEC50 is less than 4.00 at human TLR7 and 4.00 to 4.70 at human TLR8. The pIC50 in assay [1] is 5.51.
For `Nc1nc2cc(-c3ccn[nH]3)ccc2cc1C(=O)Nc1cccnc1` [Compound 124], in that order: less than 4.00, less than 4.00 and 4.84.
The corresponding values for `Nc1nc2cc(-c3ccn[nH]3)ccc2cc1-c1ccc2[nH]ncc2c1` [Compound 127] are less than 4.00, less than 4.00 and 5.94.
For `Nc1cc(NCc2cc[nH]n2)c2ccc(-c3ccn[nH]3)cc2n1` [Compound 128, N4-((1H-pyrazol-3-yl)methyl)-7-(1H-pyrazol-5-yl)quinoline-2,4-diamine], in that order: less than 4.00, less than 4.00 and 7.00.
For the compound `COc1cccc(C(C)Nc2cc(N)nc3cc(-c4ccn[nH]4)ccc23)n1` (stereo not drawn) [Compound 129, N4-(1-(6-methoxypyridin-2-yl)ethyl)-7-(1H-pyrazol-5-yl)quinoline-2,4-diamine], the negative-log EC50 (pEC50) on human TLR7 and at human TLR8 was less than 4.00 in each case. Besides, the pIC50 in assay [1] was 5.64.
Regarding `Nc1cc(N2CCOCC2)c2ccc(-c3ccn[nH]3)cc2n1` [Compound 131], the pEC50 on human TLR7 and at human TLR8 was less than 4.00 throughout. For the same compound, the negative-log IC50 (pIC50) in assay [1] is 6.07.
With `C[C@@H](O)CNc1cc(N)nc2cc(-c3ccn[nH]3)ccc12` [Compound 133], the negative logarithm of the EC50 (pEC50) at human TLR7 and on human TLR8 was less than 4.00 each time. In addition, the pIC50 in assay [1] is 6.52.
`C[C@H](O)CNc1cc(N)nc2cc(-c3ccn[nH]3)ccc12` [Compound 134]: the pEC50 at human TLR7 and at human TLR8 was less than 4.00 each time. Moreover, the negative-log IC50 (pIC50) in assay [1] is 6.54.
Take `Nc1cc(NCc2ccccn2)c2ccc(-c3ccn[nH]3)cc2n1` [Compound 135]: the pEC50 at human TLR7 and on human TLR8 was less than 4.00 each time. Also, the pIC50 in assay [1] was 6.92.
For the compound `CN(CCO)c1cc(N)nc2cc(-c3ccn[nH]3)ccc12` [Compound 136], the pEC50 on human TLR7 and at human TLR8 was less than 4.00 in each case. The negative-log IC50 (pIC50) in assay [1] is 5.52.
In the case of `Nc1cc(NCC2CCOCC2)c2ccc(-c3ccn[nH]3)cc2n1` [Compound 137], the pEC50 on human TLR7 and on human TLR8 was less than 4.00 in each case. For the same compound, the negative-log IC50 (pIC50) in assay [1] was 6.26.
On to `CN(C)C(=O)CCNc1cc(N)nc2cc(-c3ccn[nH]3)ccc12` [Compound 138], for which the negative logarithm of the EC50 (pEC50) at human TLR7 is 4.70 to 6.00; on human TLR8, less than 4.00. The pIC50 in assay [1] was 5.23.

Usually pEC50 stands for the negative decadic logarithm of the EC50, by convention in mol/L. As a reminder, the pIC50 is −log10 of the IC50, conventionally taken in molar units.
